Molecular target: T1, SMYD2 (Homo sapiens, UniProt Q9NRG4)
T1 construct: Full length SMYD2 (NP 064582.2) was cloned; His6 (N, cleaved yes); FLAG (N); made in house; host or cells: Sf9 insect cells
Assay: SMYD2 Biochemical Assay (3H-SAM, biotinylated peptide substrate, Flashplate)
Settings: Table 1; average of n = 1 to n = 50; read-out: SMYD2 Biochem IC50
Method in brief: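 Full-length His/FLAG-tagged SMYD2 expressed in Sf9 cells with tag cleaved, 1.5 nM, pre-incubated 30 min at room temperature with compound, then 10 nM 3H-SAM and 60 nM biotinylated peptide added. Buffer 20 mM Bicine pH 7.6, 1 mM TCEP, 0.005% BSG, 0.002% Tween20, 2% DMSO. Stopped with 600 uM cold SAM; 3H-peptide captured on streptavidin Flashplate; IC50 by curve fit.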

T1 sequence (Q9NRG4 whole entry): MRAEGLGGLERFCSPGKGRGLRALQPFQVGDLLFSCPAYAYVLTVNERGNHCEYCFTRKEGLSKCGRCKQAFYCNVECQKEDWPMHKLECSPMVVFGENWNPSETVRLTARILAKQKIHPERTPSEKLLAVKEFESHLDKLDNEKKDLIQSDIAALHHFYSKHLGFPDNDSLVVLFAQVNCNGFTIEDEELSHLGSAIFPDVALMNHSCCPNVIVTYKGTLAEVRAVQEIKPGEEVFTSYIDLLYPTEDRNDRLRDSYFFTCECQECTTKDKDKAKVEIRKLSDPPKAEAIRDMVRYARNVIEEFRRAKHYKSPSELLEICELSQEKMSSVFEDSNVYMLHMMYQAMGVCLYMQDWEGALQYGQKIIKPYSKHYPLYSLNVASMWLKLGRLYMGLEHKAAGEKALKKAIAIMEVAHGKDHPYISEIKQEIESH

IC50, 44.5 µM:
CC1CC(NC(=O)c2cc(C3CC3)on2)CN1Cc1ccccc1 (centres unmarked) [compound 21, N-(1-benzyl-5-methylpyrrolidin-3-yl)-5-cyclopropyl-isoxazole-3-carboxamide]

IC50, > 50 µM:
CN1C[C@H](NC(=O)c2cc(C3CC3)on2)[C@H](c2ccccc2)C1 (racemic) [compound 17, (±)-cis-5-cyclopropyl-N-((1-methyl-4-phenylpyrrolidin-3-yl)isoxazole-3-carboxamide]
CN1C[C@H](NC(=O)c2cc(C3CC3)on2)[C@@H](c2ccccc2)C1 (racemic) [compound 18, (±)-trans-5-cyclopropyl-N-(1-methyl-4-phenylpyrrolidin-3-yl)isoxazole-3-carboxamide]
C[C@@H]1C[C@H](NC(=O)c2cc(C3CC3)on2)C(=O)N1c1cnn(C)c1 (racemic) [compound 19, (±)-cis-5-cyclopropyl-N-(5-methyl-1-(1-methyl-1H-pyrazol-4-yl)-2-oxopyrrolidin-3-yl)isoxazole-3-carboxamide]
C[C@H]1C[C@H](NC(=O)c2cc(C3CC3)on2)C(=O)N1c1cnn(C)c1 (racemic) [compound 20, (±)-trans 5-cyclopropyl-N-(5-methyl-1-(1-methyl-1H-pyrazol-4-yl)-2-oxopyrrolidin-3-yl)isoxazole-3-carboxamide]
CC(=O)Nc1ccc(S(=O)(=O)N2CC[C@H](NC(=O)c3cc(C4CC4)on3)C2)cc1 [compound 1, (S)-N-(1-((4-acetamido-phenyl)sulfonyl)pyrrolidin-3-yl)-5-cyclopropyl-isoxazole-3-carboxamide]
CC(=O)Nc1ccc(S(=O)(=O)N2CC[C@@H](NC(=O)c3cc(C4CC4)on3)C2)cc1 [compound 2, (R)-N-(1-((4-acetamido-phenyl)sulfonyl)pyrrolidin-3-yl)-5-cyclopropyl-isoxazole-3-carboxamide]
O=C(N[C@@H]1CCNC1)c1cc(C2CC2)on1 [compound 4, (R)-5-cyclopropyl-N-(pyrrolidin-3-yl)isoxazole-3-carboxamide]
CN1CCC(NC(=O)c2cc(C3CC3)on2)C1c1ccccc1 (centres unmarked) [compound 5, 5-cyclopropyl-N-(1-methyl-2-phenyl-pyrrolidin-3-yl)isoxazole-3-carboxamide]
Cc1cc(N2CCC(NC(=O)c3cc(C4CC4)on3)C2=O)n(C)n1 (centres unmarked) [compound 6, 5-cyclopropyl-N-(1-(1,3-dimethyl-1H-pyrazol-5-yl)-2-oxopyrrolidin-3-yl)isoxazole-3-carboxamide]
CN1CCC(NC(=O)c2cc(C3CC3)on2)C1c1ccc(Cl)c(F)c1 (centres unmarked) [compound 7, N-(2-(4-chloro-3-fluorophenyl)-1-methylpyrrolidin-3-yl)-5-cyclo-propylisoxazole-3-carboxamide]
O=C(NC1CCN(C2CC2)C1c1ccc(F)c(F)c1)c1cc(C2CC2)on1 (centres unmarked) [compound 8, 5-cyclopropyl-N-(1-cyclopropyl-2-(3,4-difluoro-phenyl)pyrrolidin-3-yl)isoxazole-3-carboxamide]
CN1CCC(NC(=O)c2cc(C3CC3)on2)C1c1ccc(F)c(F)c1 (centres unmarked) [compound 9, 5-cyclopropyl-N-(2-(3,4-difluorophenyl)-1-methylpyrrolidin-3-yl)isoxazole-3-carboxamide]
CC1CC(NC(=O)c2cc(C3CC3)on2)CN1c1ccccc1 (centres unmarked) [compound 10, 5-cyclopropyl-N-(5-methyl-1-phenylpyrrolidin-3-yl)isoxazole-3-carboxamide]
CC1CC(NC(=O)c2cc(C3CC3)on2)C(=O)N1c1ccccc1 (centres unmarked) [compound 11, 5-cyclopropyl-N-(5-methyl-2-oxo-1-phenylpyrrolidin-3-yl)isoxazole-3-carboxamide]
CC(C)N1CCC(NC(=O)c2cc(C3CC3)on2)C1c1ccc(F)c(F)c1 (centres unmarked) [compound 12, 5-cyclopropyl-N-(2-(3,4-difluorophenyl)-1-isopropylpyrrolidin-3-yl)isoxazole-3-carboxamide]
CN1CCC(NC(=O)c2cc(C3CC3)on2)C1c1ccc(F)cc1 (centres unmarked) [compound 13, 5-cyclopropyl-N-(2-(4-fluorophenyl)-1-methylpyrrolidin-3-yl)isoxazole-3-carboxamide]
CN1C(=O)CC(NC(=O)c2cc(C3CC3)on2)C1c1ccc(F)cc1 (centres unmarked) [compound 14, 5-cyclopropyl-N-(2-(4-fluorophenyl)-1-methyl-5-oxopyrrolidin-3-yl)isoxazole-3-carboxamide]
Cn1ccc(N2CCC(NC(=O)c3cc(C4CC4)on3)C2=O)n1 (centres unmarked) [compound 15, 5-cyclopropyl-N-(1-(1-methyl-1H-pyrazol-3-yl)-2-oxopyrrolidin-3-yl)isoxazole-3-carboxamide]
COc1cccc(C2C(NC(=O)c3cc(C4CC4)on3)CCN2C2CC2)c1 (centres unmarked) [compound 16, 5-cyclopropyl-N-(1-cyclopropyl-2-(3-methoxy-phenyl)pyrrolidin-3-yl)isoxazole-3-carboxamide]
CC1CC(NC(=O)c2cc(C3CC3)on2)CN1C1CC1 (centres unmarked) [compound 22, 5-cyclopropyl-N-(1-cyclopropyl-5-methylpyrrolidin-3-yl)isoxazole-3-carboxamide]
CC(c1ccccc1)N1CCC(NC(=O)c2cc(C3CC3)on2)C1 (centres unmarked) [compound 24, 5-cyclopropyl-N-(1-(1-phenylethyl)pyrrolidin-3-yl)isoxazole-3-carboxamide]
O=C(NC1CC(=O)N(c2ccccc2)C1)c1cc(C2CC2)on1 (centres unmarked) [compound 25, 5-cyclopropyl-N-(5-oxo-1-phenylpyrrolidin-3-yl)isoxazole-3-carboxamide]
O=C(NC1CC(=O)N(Cc2ccccc2)C1)c1cc(C2CC2)on1 (centres unmarked) [compound 26, N-(1-benzyl-5-oxopyrrolidin-3-yl)-5-cyclopropylisoxazole-3-carboxamide]
O=C(NC1CCN(Cc2ccccc2)C1=O)c1cc(C2CC2)on1 (centres unmarked) [compound 27, N-(1-benzyl-2-oxopyrrolidin-3-yl)-5-cyclopropylisoxazole-3-carboxamide]
O=C(NC1CCN(c2ccccc2)C1=O)c1cc(C2CC2)on1 (centres unmarked) [compound 28, 5-cyclopropyl-N-(2-oxo-1-phenyl-pyrrolidin-3-yl)isoxazole-3-carboxamide]
CN1CCC(NC(=O)c2cc(C3CC3)on2)C1 (centres unmarked) [compound 29, 5-cyclopropyl-N-(1-methylpyrrolidin-3-yl)isoxazole-3-carboxamide]
NCCCC(=O)N1CC[C@@H](NC(=O)c2cc(C3CC3)on2)C1 [compound 30, (R)-N-(1-(4-amino-butanoyl)pyrrolidin-3-yl)-5-cyclopropyl-isoxazole-3-carboxamide]
N[C@H]1CC[C@H](C(=O)N2CC[C@@H](NC(=O)c3cc(C4CC4)on3)C2)CC1 [compound 31, N-((R)-1-((1r,4r)-4-aminocyclohexane-1-carbonyl)pyrrolidin-3-yl)-5-cyclopropyl-isoxazole-3-carboxamide]
NCCCC(=O)N1CC[C@H](NC(=O)c2cc(C3CC3)on2)C1 [compound 32, (S)-N-(1-(4-amino-butanoyl)pyrrolidin-3-yl)-5-cyclopropyl-isoxazole-3-carboxamide]
N[C@H]1CC[C@H](C(=O)N2CC[C@H](NC(=O)c3cc(C4CC4)on3)C2)CC1 [compound 33, N-((S)-1-((1r,4s)-4-aminocyclohexane-1-carbonyl)pyrrolidin-3-yl)-5-cyclopropyl-isoxazole-3-carboxamide]
NCCCS(=O)(=O)N1CC[C@@H](NC(=O)c2cc(C3CC3)on2)C1 [compound 34, (R)-N-(1-((3-amino-propyl)sulfonyl)pyrrolidin-3-yl)-5-cyclopropyl-isoxazole-3-carboxamide]
NCCCS(=O)(=O)N1CC[C@H](NC(=O)c2cc(C3CC3)on2)C1 [compound 35, (S)-N-(1-((3-amino-propyl)sulfonyl)pyrrolidin-3-yl)-5-cyclopropyl-isoxazole-3-carboxamide]

IC50, 48.6 µM:
O=C(N[C@H]1CCNC1)c1cc(C2CC2)on1 [compound 3, (S)-5-cyclopropyl-N-(pyrrolidin-3-yl)isoxazole-3-carboxamide]

IC50, 5.18 µM:
CC1CN(C2CC2)CC1NC(=O)c1cc(C2CC2)on1 (centres unmarked) [compound 23, 5-cyclopropyl-N-(1-cyclopropyl-4-methylpyrrolidin-3-yl)isoxazole-3-carboxamide]

From patent publication US20170253601A1, “Substituted Pyrrolidine Compounds” (EPIZYME, INC., priority 2014, published 2017)
